Test [1] addresses T1, p56lck GST-SH2 (lck SH2 domain) (Homo sapiens, UniProt P06239).
T1 construct: GST (N)
The test can be described thus: Receptor-ligand equilibrium binding constants by surface plasmon resonance (biosensor), lck SH2 domain.

Test [2] deals with Inter-leukin 2 (IL-2) production by activated Human Primary T Lymphocytes. Put plainly: Primary T cell assay: inhibition of IL-2 production by activated human primary CD4 positive T lymphocytes. It counts as cell-based. Conditions: Homo sapiens, Table 5, mean IC50 value, CD4 positive T cells activated with anti-CD3/anti-CD28, IL-2 by ELISA, read-out: IC50 (blocking IL-2 production). On the procedure:
Summary of Primary T Cell Assay.
Inhibitors of the lck SH2 domain were assayed for their ability to block Inter-leukin 2 (IL-2) production by activated Human Primary T Lymphocytes. Peripheral blood mononuclear cells were isolated from whole blood by centrifugation in ficoll-Pague partitioning medium. CD4 positive cells were purified using negative selection. […] The compounds, at the appropriate dilutions, were added, and the cells were incubated for 60 minutes at 37° C. The CD4 positive T cells were then activated by the addition of anti-CD3 (60 ng/mL), anti CD28 (500 ng/mL) and goat anti mouse IgG coated beads, and incubated overnight at 37° C. The cells were pelleted, and the supernatents assayed for IL-2 by ELISA.
As SH2 domain containing proteins are intracellular, any therapeutic agent must be able to cross biological membranes. […] These characteristics may be quantified by observing inhibition in IL-2 production in human blood CD4 positive T-lymphocytes after T cell receptor and CD28 cross-linking.
(In general: An ELISA detects its analyte on a solid surface through an enzyme-linked reagent.)

Setting [3] is: Table 1, compounds of formula (II).
Setting [4] is: Table 2, compounds of formula (III).

Where two headings read alike, the source gives them in different places.

In patent publication US6284768A, “Src family SH2 domain inhibitors” (Boehringer Ingelheim Pharmaceuticals, Inc., priority 1999, dated 2001) one finds Kd and IC50 data, which are given here for 43 compounds.

Broadly, the Kd is the concentration at which binding is half-saturated. Low readings indicate tighter binding, high ones weaker binding. As a reminder, the IC50 is the concentration that inhibits the measured activity by half.

T1 sequence (P06239 127-224 limits assumed): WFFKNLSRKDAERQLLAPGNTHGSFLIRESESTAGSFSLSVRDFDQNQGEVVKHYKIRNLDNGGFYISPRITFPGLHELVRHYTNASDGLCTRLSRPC

For the compound `COc1ccc(Cn2ccc(C)c(NC(=O)C(Cc3ccc(C4(C(=O)O)CCCC4)cc3)NC(=O)Cc3ccc4ccccc4c3)c2=O)cc1` (racemic) [Compound 108], the Kd in test [1] (setting [3]) is 2.8 µM. For the same compound, the IC50 in test [2] (CD4 positive) is 69 µM.

Regarding `COc1ccc(Cn2ccc(C)c(NC(=O)C(Cc3ccc(C(C)(C)C(=O)O)cc3)NC(=O)Cc3ccc4ccccc4c3)c2=O)cc1C` (racemic) [Compound 149, 3-[2'-(R,S)-(2""-Naphthylacetyl)amino-3'-[4"-(1'"-carboxy-1"-methyl)ethyl]benzene]propanoylamino-1-(4-methoxy-3-methylbenzyl)-4-methyl-2-pyridone], in test [1] (setting [3]), binding was put at a Kd of 3.8 µM. Also, the IC50 in test [2] (CD4 positive) came out at 54 µM.

In test [1] (setting [4]), `COc1ccc(Cn2ncc(C)c(NC(=O)C(Cc3ccc(C(C)(C)C(=O)O)cc3)NC(=O)Cc3ccc4ccccc4c3)c2=O)cc1` (racemic) [Compound 242, 4-[2'-(R,S)-(2""-Naphthylacetyl)amino-3'-[4"-(1'"-carboxy-1'"-methyl)ethyl]benzene]propanoylamino-2-(4-methoxybenzyl)-5-methyl-3-pyridazinone] came in with a Kd of 0.53 µM. Also, the IC50 in test [2] (CD4 positive) stood at 60 µM. In test [1] (setting [3]), `COc1ccc(Cn2ccc(C)c(NC(=O)[C@H](Cc3ccc(C(C)(C)C(=O)O)cc3)NC(=O)Cc3cccc4ccccc34)c2=O)cc1` [Compound 2, 3-[2'-(S)-(1"-Naphthylacetyl)amino-3'-[4'"-(1'"-carboxy-1'"-methyl)ethyl]benzene]propanoylamino-1-(4-methoxybenzyl)-4-methyl-2-pyridone] returned a Kd of 0.57 µM. For the same compound, the 50% inhibitory concentration (IC50) in test [2] (CD4 positive) is 96 µM. The matching figures for `COc1ccc(Cn2ccc(C)c(NC(=O)[C@H](Cc3ccc(C(C)(C)C(=O)O)cc3)NC(=O)[C@@H](C)c3ccc4ccccc4c3)c2=O)cc1` [Compound 46]: 2.3 µM and 58 µM. Consider `COc1ccc(Cn2ccc(C)c(NC(=O)[C@H](Cc3ccc(C(C)(C)C(=O)O)cc3)NC(=O)C(C)(C)c3ccc4ccccc4c3)c2=O)cc1` [Compound 107], for which, in test [2], the IC50 turned out to be 48 µM. Regarding `COCCOCn1ccc(C)c(NC(=O)C(Cc2ccc(C(C)(C)C(=O)O)cc2)NC(=O)Cc2ccc3ccccc3c2)c1=O` (stereo not drawn) [Compound 189], the affinity in test [1] (setting [3]), expressed as Kd, was 13 µM. `COCCOCn1ccc(C)c(NC(=O)C(Cc2ccc(C(C)(C)C(=O)O)cc2)NC(=O)C(C)(C)c2ccc3ccccc3c2)c1=O` (stereo not drawn) [Compound 190] gave a Kd in test [1] (setting [3]) of 43 µM. This Kd is about 3.3-fold higher than that of the compound before.

For `CCCCCn1ccc(C)c(NC(=O)C(Cc2ccc(C(C)(C)C(=O)O)cc2)NC(=O)Cc2cccc3ccccc23)c1=O` (stereo not drawn) [Compound 191], the Kd in test [1] (setting [3]) is 3.1 µM. The same measure, in the same setting: in the case of `CCCCCn1ccc(C)c(NC(=O)C(Cc2ccc(C(C)(C)C(=O)O)cc2)NC(=O)C(C)(C)c2ccc3ccccc3c2)c1=O` (stereo not drawn) [Compound 193] it was 4.1 µM; in that of `Cc1ccn(Cc2ccccc2)c(=O)c1NC(=O)C(Cc1ccc(C(C)(C)C(=O)O)cc1)NC(=O)Cc1cccc2ccccc12` (stereo not drawn) [Compound 197], 9 µM; in that of `Cc1ccn(Cc2ccccc2)c(=O)c1NC(=O)C(Cc1ccc(C(C)(C)C(=O)O)cc1)NC(=O)Cc1ccc2ccccc2c1` (stereo not drawn) [Compound 198], 2.5 µM.

The compound `Cc1ccn(CCc2ccccc2)c(=O)c1NC(=O)C(Cc1ccc(C(C)(C)C(=O)O)cc1)NC(=O)Cc1cccc2ccccc12` (stereo not drawn) [Compound 199] displayed a Kd in test [1] (setting [3]) of 9.1 µM. Take `Cc1ccn(Cc2ccoc2)c(=O)c1NC(=O)C(Cc1ccc(C(C)(C)C(=O)O)cc1)NC(=O)Cc1cccc2ccccc12` (stereo not drawn) [Compound 201]: the Kd in test [1] (setting [3]) is 6.7 µM. Consider `Cc1ccn(Cc2ccoc2)c(=O)c1NC(=O)C(Cc1ccc(C(C)(C)C(=O)O)cc1)NC(=O)Cc1ccc2ccccc2c1` (stereo not drawn) [Compound 202], for which the Kd in test [1] (setting [3]) is 2.5 µM.

`Cc1ccn(Cc2ccoc2)c(=O)c1NC(=O)C(Cc1ccc(C(C)(C)C(=O)O)cc1)NC(=O)C(C)(C)c1ccc2ccccc2c1` (stereo not drawn) [Compound 203] showed a Kd in test [1] (setting [3]) of 11 µM. `CCCCCCn1ccc(C)c(NC(=O)C(Cc2ccc(C(C)(C)C(=O)O)cc2)NC(=O)CCc2ccccc2)c1=O` (stereo not drawn) [Compound 204]: the Kd in test [1] (setting [3]) was 10 µM. This Kd and that of the compound before are within 1.5-fold of each other. Same read-out and setting: then `CCCCCCn1ccc(C)c(NC(=O)C(Cc2ccc(C(C)(C)C(=O)O)cc2)NC(=O)Cc2cccs2)c1=O` (stereo not drawn) [Compound 206], with 0.89 µM; and `CCCCCCn1ccc(C)c(NC(=O)C(Cc2ccc(C(C)(C)C(=O)O)cc2)NC(=O)Cc2ccccc2OC)c1=O` (stereo not drawn) [Compound 207], with 1.7 µM. The same measure, in the same setting: in the case of `Cc1ccn(CC2CCOC2)c(=O)c1NC(=O)C(Cc1ccc(C(C)(C)C(=O)O)cc1)NC(=O)Cc1cccc2ccccc12` (stereo not drawn) [Compound 210] it was 15 µM; in that of `Cc1ccn(CC2CCOC2)c(=O)c1NC(=O)C(Cc1ccc(C(C)(C)C(=O)O)cc1)NC(=O)Cc1ccc2ccccc2c1` (stereo not drawn) [Compound 211], 4.9 µM; in that of `Cc1ccn(CC2CCOC2)c(=O)c1NC(=O)C(Cc1ccc(C(C)(C)C(=O)O)cc1)NC(=O)C(C)(C)c1ccc2ccccc2c1` (stereo not drawn) [Compound 212], 23 µM.

Turning to `COc1ccc(Cn2ccc(CCO)c(NC(=O)C(Cc3ccc(C(C)(C)C(=O)O)cc3)NC(=O)C(C)(C)c3ccc4ccccc4c3)c2=O)cc1` (stereo not drawn) [Compound 223], the Kd in test [1] (setting [3]) is 2.4 µM. `Cc1ccn(Cc2ccc(C(=O)C(F)(F)F)cc2)c(=O)c1NC(=O)C(Cc1ccc(C(C)(C)C(=O)O)cc1)NC(=O)C(C)(C)c1ccc2ccccc2c1` (stereo not drawn) [Compound 225] yielded a Kd in test [1] (setting [3]) of 41 µM. Compared with the last compound, the Kd is about 17-fold higher. Consider `Cc1ccn(Cc2ccc(C(=O)C(F)(F)F)cc2)c(=O)c1NC(=O)C(Cc1ccc(C(C)(C)C(=O)O)cc1)NC(=O)Cc1ccc2ccccc2c1` (stereo not drawn) [Compound 226], for which, in test [1] (setting [3]), binding was characterised by a dissociation constant (Kd) of 33 µM. `COc1ccc(Cn2cc(Br)c(C)c(NC(=O)[C@H](Cc3ccc(C(C)(C)C(=O)O)cc3)NC(=O)C(C)(C)c3ccc(C(F)(F)F)cc3)c2=O)cc1` [Compound 227] came in with a Kd in test [1] (setting [3]) of 0.37 µM. The same measure, in the same setting: then `COc1ccc(Cn2cc(Br)c(C)c(NC(=O)[C@H](Cc3ccc(C(C)(C)C(=O)O)cc3)NC(=O)Cc3ccc(C(F)(F)F)cc3)c2=O)cc1` [Compound 228], with 0.08 µM. On the same count and under the same terms, then `COc1ccc(Cn2ccc(C)c(NC(=O)C(Cc3ccc(C(C)(C)C(=O)O)cc3)NC(=O)C(C)(C)c3ccc(N(C)C)cc3)c2=O)cc1` (stereo not drawn) [Compound 230], with 0.51 µM; and `COc1ccc(Cn2ccc(C)c(NC(=O)C(Cc3ccc(C(C)(C)C(=O)O)cc3)NC(=O)C(C)(C)c3ccc4ccccc4c3)c2=O)cc1O` (stereo not drawn) [Compound 232], with 33 µM. The same measure, in the same setting: then `COc1ccc(Cn2cc(Br)c(C)c(NC(=O)[C@H](Cc3ccc(C(C)(C)C(=O)O)cc3)NC(=O)C(C)(C)c3ccc4ccccc4c3)c2=O)cc1` [Compound 233], with 0.42 µM; and `COc1ccc(Cn2cc(Br)c(C)c(NC(=O)[C@H](Cc3ccc(C(C)(C)C(=O)O)cc3)NC(=O)C(C)(F)c3ccc(C(F)(F)F)cc3)c2=O)cc1` (stereo partly drawn) [Compound 234], with 1.6 µM; and `COC1CCC(Cn2ccc(C)c(NC(=O)C(Cc3ccc(C(C)(C)C(=O)O)cc3)NC(=O)C(C)(C)c3ccc4ccccc4c3)c2=O)CC1` (stereo not drawn) [Compound 235], with 6.2 µM. In the case of `COCCCCn1ccc(C)c(NC(=O)C(Cc2ccc(C(C)(C)C(=O)O)cc2)NC(=O)C(C)(C)c2ccc3ccccc3c2)c1=O` (stereo not drawn) [Compound 236], in test [1] (setting [3]), the affinity, expressed as Kd, was 1.4 µM.

In test [1] (setting [3]), `COCCCCn1ccc(C)c(NC(=O)C(Cc2ccc(C(C)(C)C(=O)O)cc2)NC(=O)Cc2ccc3ccccc3c2)c1=O` (stereo not drawn) [Compound 237] gave a Kd of 3.1 µM. This Kd lies about 2.2-fold higher than the previous one. On the same count and under the same terms, in the case of `CCCCCCn1cc(Br)c(C)c(NC(=O)C(Cc2ccc(C(C)(C)C(=O)O)cc2)NC(=O)Cc2ccc3ccccc3c2)c1=O` (stereo not drawn) [Compound 238] it was 0.72 µM; in that of `COC1CCC(Cn2ccc(C)c(NC(=O)C(Cc3ccc(C(C)(C)C(=O)O)cc3)NC(=O)Cc3ccc4ccccc4c3)c2=O)CC1` (stereo not drawn) [Compound 239], 3.2 µM. Consider `CCCCCCn1cc(C(=O)OC)c(C)c(NC(=O)C(Cc2ccc(C(C)(C)C(=O)O)cc2)NC(=O)Cc2ccc3ccccc3c2)c1=O` (stereo not drawn) [Compound 240], for which the Kd in test [1] (setting [3]) stood at 0.74 µM.

`COc1ccc(Cn2cc(Br)c(C)c(NC(=O)[C@H](Cc3ccc(-n4nnc(C(=O)O)c4C(=O)O)cc3)NC(=O)Cc3ccc4ccccc4c3)c2=O)cc1` [Compound 241, 3-[2'-(S)-(2""-Naphthylacetyl)amino-3'-[4"-(4'",5'"-dicarboxytriazolyl)]benzene]propanoylamino-1-(4-methoxybenzyl)-5-bromo-4-methyl-2-pyridone]: in test [1] (setting [3]), the Kd was 0.06 µM. With `COc1ccc(Cn2ncc(C)c(NC(=O)[C@H](Cc3ccc(CC(=O)O)cc3)NC(=O)Cc3cccc4ccccc34)c2=O)cc1` [Compound 243], binding in test [1] (setting [4]) was characterised by a dissociation constant (Kd) of 35 µM. `COc1ccc(Cn2nc(C)c(C)c(NC(=O)[C@H](Cc3ccc(CC(=O)O)cc3)NC(=O)Cc3cccc4ccccc34)c2=O)cc1` [Compound 244] gave a Kd in test [1] (setting [4]) of 6 µM. In the case of `COc1ccc(Cn2ncc(C)c(NC(=O)C(Cc3ccc(C(C)(C)C(=O)O)cc3)NC(=O)Cc3ccccc3)c2=O)cc1` (stereo not drawn) [Compound 245], binding in test [1] (setting [4]) was put at a Kd of 23 µM. Same read-out and setting: then `COc1ccc(Cn2ncc(C)c(NC(=O)C(Cc3ccc(C(C)(C)C(=O)O)cc3)NC(=O)Cc3ccccc3N)c2=O)cc1` (stereo not drawn) [Compound 246], with 30 µM; and `COc1ccc(Cn2ncc(C)c(NC(=O)C(Cc3ccc(C(C)(C)C(=O)O)cc3)NC(=O)Cc3ccccc3[N+](=O)[O-])c2=O)cc1` (stereo not drawn) [Compound 247], with 5.2 µM.
